Measurements: PubChem BioAssay (NCI)
Several values for one entry are separate records, joined by “and”; a condition that tells them apart may be missing. Identical values can stand only once.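 Cells were grown in 96-well plates and exposed to each compound for 48 hours at five concentrations; endpoints were interpolated linearly between bracketing concentrations, or set to the highest concentration if not reached. At the GI50, growth is halved. TGI denotes the concentration required for complete inhibition of growth.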

Experiments:
Test in all cases: NCI-60 cell line screen, 48 h
786-0 renal = tested on: 786-0 renal
A498 renal = tested on: A498 renal
A549 NSCLC = tested on: A549 NSCLC
ACHN renal = tested on: ACHN renal
BT-549 breast = tested on: BT-549 breast
CAKI-1 renal = tested on: CAKI-1 renal
CCRF-CEM leukemia = tested on: CCRF-CEM leukemia
COLO 205 colon = tested on: COLO 205 colon
DU-145 prostate = tested on: DU-145 prostate
EKVX NSCLC = tested on: EKVX NSCLC
HCC-2998 colon = tested on: HCC-2998 colon
HCT-116 colon = tested on: HCT-116 colon
HCT-15 colon = tested on: HCT-15 colon
HL-60(TB) leukemia = tested on: HL-60(TB) leukemia
HOP-62 NSCLC = tested on: HOP-62 NSCLC
HOP-92 NSCLC = tested on: HOP-92 NSCLC
HS 578T breast = tested on: HS 578T breast
HT29 colon = tested on: HT29 colon
IGROV1 ovarian = tested on: IGROV1 ovarian
K-562 leukemia = tested on: K-562 leukemia
KM12 colon = tested on: KM12 colon
LOX IMVI melanoma = tested on: LOX IMVI melanoma
M14 melanoma = tested on: M14 melanoma
MALME-3M melanoma = tested on: MALME-3M melanoma
MCF7 breast = tested on: MCF7 breast
MDA-MB-231 breast = tested on: MDA-MB-231 breast
MDA-MB-435 = tested on: MDA-MB-435
MOLT-4 leukemia = tested on: MOLT-4 leukemia
NCI-H226 lung = tested on: NCI-H226 lung
NCI-H23 lung = tested on: NCI-H23 lung
NCI-H460 lung = tested on: NCI-H460 lung
NCI-H522 lung = tested on: NCI-H522 lung
NCI/ADR-RES ovarian = tested on: NCI/ADR-RES ovarian
OVCAR-3 ovarian = tested on: OVCAR-3 ovarian
OVCAR-4 ovarian = tested on: OVCAR-4 ovarian
OVCAR-5 ovarian = tested on: OVCAR-5 ovarian
OVCAR-8 ovarian = tested on: OVCAR-8 ovarian
PC-3 prostate = tested on: PC-3 prostate
RPMI-8226 leukemia = tested on: RPMI-8226 leukemia
RXF 393 renal = tested on: RXF 393 renal
SF-268 CNS = tested on: SF-268 CNS
SF-295 CNS = tested on: SF-295 CNS
SF-539 CNS = tested on: SF-539 CNS
SK-MEL-2 melanoma = tested on: SK-MEL-2 melanoma
SK-MEL-28 melanoma = tested on: SK-MEL-28 melanoma
SK-MEL-5 melanoma = tested on: SK-MEL-5 melanoma
SK-OV-3 ovarian = tested on: SK-OV-3 ovarian
SN12C renal = tested on: SN12C renal
SNB-19 CNS = tested on: SNB-19 CNS
SNB-75 CNS = tested on: SNB-75 CNS
SR leukemia = tested on: SR leukemia
SW-620 colon = tested on: SW-620 colon
T-47D breast = tested on: T-47D breast
TK-10 renal = tested on: TK-10 renal
U251 CNS = tested on: U251 CNS
UACC-257 melanoma = tested on: UACC-257 melanoma
UACC-62 melanoma = tested on: UACC-62 melanoma
UO-31 renal = tested on: UO-31 renal

C[C@@H]1C[C@H]2C(=O)OCC(NC(=O)[C@H](Cc3cc(F)cc(F)c3)NC(=O)Nc3ccc(Cl)cc3F)C(=O)N3CCC[C@H]3C(=O)N3CCCC[C@H]3C(=O)N[C@@H](C)C(=O)N2C1 (some centres undefined)
GI50 (786-0 renal): 3.06 µM and 1.18 µM
TGI (786-0 renal): 50 µM and 55.5 µM
GI50 (A498 renal): 2.47 µM
TGI (A498 renal): 28.5 µM and 19.2 µM
GI50 (A549 NSCLC): 1.96 µM and 0.916 µM
TGI (A549 NSCLC): 50 µM and > 100 µM
GI50 (ACHN renal): 2.22 µM and 1.14 µM
TGI (ACHN renal): 50 µM and > 100 µM
GI50 (BT-549 breast): 1.91 µM and 0.499 µM
TGI (BT-549 breast): 8.74 µM and 6.72 µM
GI50 (CAKI-1 renal): 1.9 µM and 0.4 µM
TGI (CAKI-1 renal): 50 µM and 15.6 µM
GI50 (CCRF-CEM leukemia): 2.18 µM and 0.51 µM
TGI (CCRF-CEM leukemia): 47.2 µM and 19 µM
GI50 (COLO 205 colon): 1.27 µM and 0.402 µM
TGI (COLO 205 colon): 3.64 µM and 1.39 µM
GI50 (DU-145 prostate): 2.1 µM and 0.511 µM
TGI (DU-145 prostate): 50 µM and > 100 µM
GI50 (EKVX NSCLC): 2.16 µM and 0.643 µM
TGI (EKVX NSCLC): 50 µM and 97.1 µM
GI50 (HCC-2998 colon): 2.74 µM and 0.619 µM
TGI (HCC-2998 colon): 11.2 µM and 4.46 µM
GI50 (HCT-116 colon): 1.96 µM and 0.355 µM
TGI (HCT-116 colon): 7.37 µM and 2.04 µM
GI50 (HCT-15 colon): 1.96 µM and 0.468 µM
TGI (HCT-15 colon): 37.3 µM and 10.4 µM
GI50 (HL-60(TB) leukemia): 1.73 µM and 0.287 µM
TGI (HL-60(TB) leukemia): 8.21 µM and 1.53 µM
GI50 (HOP-62 NSCLC): 2.03 µM and 1.07 µM
TGI (HOP-62 NSCLC): 50 µM and 35.8 µM
GI50 (HOP-92 NSCLC): 1.41 µM and 0.399 µM
TGI (HOP-92 NSCLC): 8.43 µM and 7.29 µM
GI50 (HS 578T breast): 1.74 µM and 0.603 µM
TGI (HS 578T breast): 50 µM and 18.6 µM
GI50 (HT29 colon): 1.91 µM and 0.595 µM
TGI (HT29 colon): 8.68 µM and 3.37 µM
GI50 (IGROV1 ovarian): 4.56 µM and 1.6 µM
TGI (IGROV1 ovarian): 50 µM and 81.6 µM
GI50 (K-562 leukemia): 0.399 µM
TGI (K-562 leukemia): > 100 µM
GI50 (KM12 colon): 3.33 µM and 2.5 µM
TGI (KM12 colon): 27.1 µM and 19.7 µM
GI50 (LOX IMVI melanoma): 0.898 µM and 0.776 µM
GI50 (M14 melanoma): 2.05 µM and 0.448 µM
TGI (M14 melanoma): 9.05 µM and 10.3 µM
GI50 (MALME-3M melanoma): 3.1 µM and 1.64 µM
TGI (MALME-3M melanoma): 16.7 µM and 16.3 µM
GI50 (MCF7 breast): 1.89 µM and 0.39 µM
TGI (MCF7 breast): 50 µM and 20 µM
GI50 (MDA-MB-231 breast): 1.65 µM and 0.484 µM
TGI (MDA-MB-231 breast): 5.9 µM and 4.24 µM
GI50 (MDA-MB-435): 2.25 µM and 0.495 µM
TGI (MDA-MB-435): 13.2 µM and 12.3 µM
GI50 (MOLT-4 leukemia): 0.437 µM and 0.793 µM
TGI (MOLT-4 leukemia): 5.12 µM and 17.9 µM
GI50 (NCI-H226 lung): 2.08 µM and 0.312 µM
GI50 (NCI-H23 lung): 2.79 µM
TGI (NCI-H23 lung): 50 µM
GI50 (NCI-H460 lung): 1.88 µM and 0.516 µM
TGI (NCI-H460 lung): 50 µM and 17.3 µM
GI50 (NCI-H522 lung): 1.44 µM and 0.38 µM
TGI (NCI-H522 lung): 8.78 µM and 5.8 µM
GI50 (NCI/ADR-RES ovarian): 7.72 µM and 2.87 µM
TGI (NCI/ADR-RES ovarian): 50 µM and > 100 µM
GI50 (OVCAR-3 ovarian): 2.23 µM and 0.55 µM
TGI (OVCAR-3 ovarian): 50 µM and 11.4 µM
GI50 (OVCAR-4 ovarian): 1.66 µM and 0.482 µM
TGI (OVCAR-4 ovarian): 50 µM and > 100 µM
GI50 (OVCAR-5 ovarian): 2.34 µM and 0.751 µM
TGI (OVCAR-5 ovarian): 10.9 µM and 16.5 µM
GI50 (OVCAR-8 ovarian): 1.79 µM and 0.408 µM
TGI (OVCAR-8 ovarian): 50 µM and > 100 µM
GI50 (PC-3 prostate): 1.7 µM and 0.373 µM
TGI (PC-3 prostate): 29.4 µM and 19 µM
GI50 (RPMI-8226 leukemia): 1.19 µM and 0.333 µM
TGI (RPMI-8226 leukemia): 7.42 µM and 1.72 µM
GI50 (RXF 393 renal): 2.89 µM and 1.69 µM
TGI (RXF 393 renal): 13.4 µM and 11.5 µM
GI50 (SF-268 CNS): 3.15 µM and 0.645 µM
TGI (SF-268 CNS): 50 µM and 51.9 µM
GI50 (SF-295 CNS): 1.87 µM and 0.411 µM
TGI (SF-295 CNS): 11.8 µM and 7.71 µM
GI50 (SF-539 CNS): 2.63 µM and 1.27 µM
TGI (SF-539 CNS): 10.5 µM and 15.4 µM
GI50 (SK-MEL-2 melanoma): 1.81 µM and 0.337 µM
TGI (SK-MEL-2 melanoma): 8.07 µM and 3.28 µM
GI50 (SK-MEL-28 melanoma): 3.04 µM and 1.37 µM
TGI (SK-MEL-28 melanoma): 12.5 µM and 16.4 µM
GI50 (SK-MEL-5 melanoma): 1.82 µM and 0.566 µM
TGI (SK-MEL-5 melanoma): 7.37 µM and 4.56 µM
GI50 (SK-OV-3 ovarian): 2.14 µM and 1.51 µM
TGI (SK-OV-3 ovarian): 35.6 µM and 17.1 µM
GI50 (SN12C renal): 1.68 µM and 0.444 µM
TGI (SN12C renal): 50 µM and 82.4 µM
GI50 (SNB-19 CNS): 2 µM and 0.46 µM
TGI (SNB-19 CNS): 50 µM and > 100 µM
GI50 (SNB-75 CNS): 2.29 µM and 0.365 µM
TGI (SNB-75 CNS): 50 µM and 16.9 µM
GI50 (SR leukemia): 0.964 µM and 1.37 µM
TGI (SR leukemia): 6.9 µM and 14.4 µM
GI50 (SW-620 colon): 3.37 µM and 0.801 µM
TGI (SW-620 colon): 50 µM and > 100 µM
GI50 (T-47D breast): 1.73 µM and 0.549 µM
TGI (T-47D breast): 50 µM and 30.7 µM
GI50 (TK-10 renal): 3.04 µM and 1.49 µM
TGI (TK-10 renal): 50 µM and 33.8 µM
GI50 (U251 CNS): 2.2 µM and 0.514 µM
TGI (U251 CNS): 50 µM and 28.8 µM
GI50 (UACC-257 melanoma): 1.45 µM and 0.449 µM
TGI (UACC-257 melanoma): 6.43 µM and 7.05 µM
GI50 (UACC-62 melanoma): 2.3 µM and 0.644 µM
TGI (UACC-62 melanoma): 12.4 µM and 14.9 µM
GI50 (UO-31 renal): 2.12 µM and 2.03 µM
TGI (UO-31 renal): 50 µM and 65.8 µM
